Data taken from US20220160680A1, “MICROORGANISM MIXTURES, MOLECULES DERIVED THEREFROM, AND METHODS OF USE THEREOF” (B. G. Negev Technologies and Applications Ltd., at …, priority 2018, published 2022).
“Also recorded” adds a separate entry of the source.

Tests used:
amyloid beta (αβ1-42) [1] = molecular target: T1, amyloid beta (αβ1-42) (Homo sapiens, UniProt P05067); experiment: Thioflavin T (ThT) assay; format: biochemical; settings: 30 μM amyloid beta, 12 hours of incubation
T1 construct: samples containing 30 μM amyloid beta [4(1-42)] in the absence or presence of tryptophol acetate
T1 sequence (P05067 672-713 limits assumed): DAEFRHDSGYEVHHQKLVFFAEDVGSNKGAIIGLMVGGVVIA
Protocol: ThT fluorescence measurements were taken at 37° C. using 96-well black plate on a Biotek Synergy H1 plate reader. Measurements were made on a samples containing 30 μM amyloid beta [4(1-42)] in the absence or presence of tryptophol acetate in different concentrations. A 120-μL aliquot of the aggregation reaction was mixed with 10 μM ThT in phosphate buffer (pH 7.4). The fluorescence intensity was measured every 30 min for 24 hr at λ excitation (λex)=440 and λ emission (λem)=485 nm.

P. aeruginosa (PA01) = experiment: Static biofilm assay (CLSM); format: cell-based, Pseudomonas aeruginosa; settings: 20 μM
Protocol: (§1) For static biofilm assay, overnight cultures of P. aeruginosa (PA01), Salmonella and Staphylococcus aureus strains were diluted 1:10 in fresh LB medium containing a final concentration of synthesized molecule (203) of 20 or 50 μM, or DMSO (up to 1%) as control. Biofilms were grown under non-shaking conditions at 37° C. in 96-well plate (Thermo Scientific, Rochester, N.Y., USA). […] The stained cells were washed twice with PBS. Biofilm images were taken by CLSM (Plan-Apochromat 20×/0.8 M27, Zeiss LSM880, Germany).
(§2) P. aeruginosa PA01, Salmonella and Staphylococcus aureus strains were incubated for 24 hr at 37° C. The bacterial suspension was diluted 1:10 with fresh LB and incubated for 3 h with the kefir biomass crude extract molecules or with DMSO as a control (refreshment sample). In all cultures, DMSO concentration was up to 1% (v/v). 200 μl of the broth medium mix with yogurt extract or with DMSO as control were placed in each well of a 96-well plate (Thermo Scientific, Rochester, N.Y., USA). 2 μl refreshment samples were added to each suitable well. The plate incubated for 24 hr at 37° C. After the incubation the samples washed three times with PBS. For visualizing of viable cells, the bacteria were stained green and dead cells stained red using the BacLight® Dead/Live Kit (Invitrogen, Eugene, Oreg., USA). The stained cells were washed twice with PBS. […]

Salmonella = experiment: Static biofilm assay (CLSM); format: cell-based, Salmonella enteritidis; settings: 50 μM
Protocol: as §1, §2

Staphylococcus aureus = experiment: Static biofilm assay (CLSM); format: cell-based; settings: 50 μM
Protocol: as §1, §2

[2] = system: P. aeruginosa (PA01), Salmonella and Staphylococcus aureus strains; experiment: Bacterial cell growth/viability (BacLight Dead/Live); format: cell-based
Protocol: as §1, §2

[3] = system: Pseudomonas aeruginosa RhlA; experiment: Quorum sensing bioluminescence reporter assay; format: cell-based; settings: C4 AI, high volume
Protocol: (§3) FIGS. 8A-8E are vertical bar graphs showing bioluminescence screening of quorum sensing (QS) inhibition or activation in the presence of synthetic Tryptophol acetate. The assay was performed using mutant bacteria lacking genes encoding autoinducers. Bacteria were also cloned with a bioluminescence reporter plasmid. N-acyl Homoserine Lactone (AHL) was used for activation (agonist) or inhibition (antagonist) of the following bacteria: Agrobacterium tumefaciens, which responds to the C8 autoinducer (AI), Vibrio cholerae responds to the CAI1 autoinducer, Pseudomonas aeruginosa RhlA responds to the C4 AI and Pseudomonas aeruginosa LasR responds to the C12 AI.
(§4) Bioluminescence assay was performed with mutant bacteria lacking the nucleotide sequences encoding the relevant autoinducers (AI). Additionally, the bacteria were cloned with bioluminescence reporter plasmids in order to measure their luminescence intensity when quorum sensing gene expression occurs. Ninety-six (96) well microtiter plate assays were used to assess AI activation (agonist) or inhibition (antagonist) of the following bacteria: Agrobacterium tumefaciens, which responds to the C8 autoinducer, and both Vibrio cholerae and Vibrio harveyi, which respond to the (S)-4,5-dihydroxy-2,3-pentanedione (DPD) autoinducer to communicate.

[4] = system: Pseudomonas aeruginosa LasR; experiment: Quorum sensing bioluminescence reporter assay; format: cell-based; settings: C12 AI
Protocol: as §3, §4

amyloid beta (αβ1-42) [5] = molecular target: T1, amyloid beta (αβ1-42); experiment: Transmission electron microscopy of fibrillation; format: biochemical; settings: 24 hr, 37° C.
Protocol: TEM grids were prepared after 24 hr incubation at 37° C. of samples containing 30 μM 4(1-42) in the absence or presence of tryptophol acetate in different concentrations.

[6] = system: Agrobacterium tumefaciens A136; experiment: Quorum sensing bioluminescence reporter assay; format: cell-based; settings: C8 (3-oxo-C8-HSL) autoinducer
Protocol: Agrobacterium tumefaciens A136 pCF218 pMV26 culture was grown in Luria-Bertani broth (LB; Miller's broth) supplemented with 25 μg/ml of kanamycin and 4.5 μg/ml of tetracycline at 28-30° C. for 24 h. […] The overnight cultures were diluted to an absorbance density (OD600) of 0.05 by fresh LB medium. […] Luminescence was measured every 20 min for 19 h with continuous shaking at 30° C., using a Microtiter Plate Reader (Varioskan Flash, Thermo). Average luminescence values divided by OD600 values were plotted against the added compound concentration.
The effect of the Kefir biomass crude extract molecules on the following bacteria, A. tumefaciens A136, V. cholerae MM920 and V. harveyi MM30 were measured as described by Brenier et al. (2008). […]

## CC(=O)OCCc1c[nH]c2ccccc12 [Tryptophol acetate]
Amyloid beta (αβ1-42) [1]
  Amyloid beta fibrillation (ThT): effectively reduced amyloid beta fibrillation; also recorded: reduced αβ1-42 fibrillation
P. aeruginosa (PA01)
  Biofilm formation, P. aeruginosa: did not seem to affect biofilm formation; also recorded: No influence
Salmonella
  Biofilm formation, Salmonella: significant influence on biofilm formation
Staphylococcus aureus
  Biofilm formation, Staphylococcus aureus: significant influence on biofilm formation
[2]
  Bacterial cell growth / viability: did not impact cell growth
[3]
  Effect on QS in P. aeruginosa (RhlA): low inhibition effect
[4]
  Effect on QS in P. aeruginosa (LasR): low inhibition effect
Amyloid beta (αβ1-42) [5]
  Fibrillation formation (TEM): significantly inhibited
[6]
  Effect on QS in A. tumefaciens: inhibits QS
